In patent publication EP4752142A1, “5-HT2A RECEPTOR AGONIST, AND PREPARATION METHOD THEREFOR AND USE THEREOF” (Innovstone Therapeutics Limited, priority 2023, dated 2025):
Where two headings read alike, the source gives them in different places.

What was measured:
5-HT2A receptor [1] = target: T1, 5-HT2A receptor (Homo sapiens, UniProt P28223); experiment: 5-HT2A receptor isotope competition affinity assay; assay type: binding
Method: A radiolabeled ligand (agonist or antagonist) incubated with receptor protein could form a receptor-ligand complex. An added test compound could compete with the isotopically labeled ligand for the receptor binding, eventually forming a relative steady-state equilibrium. The affinity of the test compound for the receptor was indirectly evaluated by measuring the dissociation of the isotopically labeled ligand from the receptor.
A 100x serial gradient dilution of compounds was prepared in DMSO, starting from 1 mM with 4-fold serial dilutions, resulting in 10 concentration points. Using a pipettor, 1 µL of each gradient concentration of the test compound (final concentration starting at 10 µM, 4-fold serial dilutions, 10 concentration points) was transferred to a 96-well assay plate, to each well of which 49 µL of 5-HT2A receptor protein (102 µg/mL, prepared in an assay buffer: 50 mM Tris-HCl, pH 7.4) had been added in advance (final concentration 5 µg/well). This was followed by the addition of 50 µL of isotopically labeled [^3H]-Ketanserin (2 nM, 2× final concentration, prepared in the assay buffer). The plate was sealed and incubated on a shaker at room temperature for 1 hour. The reaction mixture was filtered through a Unifilter-96 GF/C filter plate pre-treated with 0.3% PEI. The filter plate was washed with a precooled (4°C) assay buffer and then dried in an incubator at 50°C. A scintillation liquid was added, and the plate was read using a MicroBeta2 instrument. The percentage inhibition was calculated using the equation: %Inhibition=(CountHigh Signal Control-CountSample)/(CountHigh Signal Control-CountLow Signal Control)*100. A four-parameter logistic fit was used to calculate the IC50 value. High Signal Control: No compound group (the same volume of DMSO substituted). Low Signal Control: Ketanserin group (non-isotopically labeled, 2× final concentration). Table 1: Results of 5-HT2A receptor isotope competition affinity assay, Ki Values

5-HT2A receptor [2] = target: T1, 5-HT2A receptor; experiment: 5-HT2AR calcium flux activation assay; assay type: cell-based; parameters: expressed in transfected cells; host or cells: HEK293; conditions: for Emax: Max Dose 100000 nM
Method: • 1) For cultured cells (HEK293 cells stably expressing human 5-HT2A receptor), they were first washed twice with pre-warmed DPBS, then an appropriate amount of trypsin was added for digestion at 37°C for 1 minute; an appropriate amount of the culture medium was then added to stop digestion, and 1 mL was taken for counting and vitality determination using Vi-CELL™. • 2) Cells were centrifuged at 1000 rpm for 5 minutes. • 3) The supernatant was gently discarded, being careful not to disturb the cell pellet. • 4) Cells were diluted with the culture medium to 1×10^6 cells/mL (20,000 cells/20 µL) and seeded into 384-well poly-lysine coated cell plates. They were cultured at 37°C under 5% CO2 for 16-20 hours.
• 1) Preparation of 250 mM Probenecid solution: According to the kit instructions, 77 mg of probenecid was added to 1 mL of FLIPR buffer salt solution. Prepared fresh for immediate use. • 2) Preparation of Fluo-4 Direct™ (2×, 8 µM) loading buffer: According to the kit instructions, the required amount of Fluo-4 Direct™ was thawed in advance. 10 mL of FLIPR buffer salt solution and 0.2 mL of 250 mM Probenecid solution were added to each vial. It was vortexed in the dark for >5 minutes. Prepared fresh for immediate use.
• 1) Preparation of control and test compound plates: Compounds were gradient diluted to 10 points using Echo, and 750 nL was transferred to the corresponding compound plate. • 2) 30 µL of assay buffer salt solution was added to the corresponding compound plate, which was then centrifuged at 1000 rpm for 1 minute; • 3) The cell plate prepared the day before was taken from the incubator, and 20 µL of 2× Fluo-4 Direct™ buffer was added to each well, making a total volume of 40 µL. • 4) The plate was incubated in a 5% CO2, 37°C incubator for 50 minutes, then left at room temperature for 10 minutes. • 5) The compound plate, the cell plate, and pipette tips were placed into the instrument; • 6) The FLIPR instrument software was run according to the set program, adding 10 µL of the specified concentrations of test compounds and control compounds to the cell plate, and fluorescence signals were read. After reading, data was exported using the "Max-Min", "Read 1 to 90" method in the software. • 7) Data analysis: Agonist Activation% = (RLU−DMSO)/(HC−DMSO)*100 [formula] • RLU: Relative Light Units, read values 1 to 90; • HC: Average fluorescence signal of the highest concentration point of the agonist; • DMSO: Average fluorescence signal of the DMSO group; • 8) Data was fitted using Prism 5.0.
For agonist: EC50 was fitted using "log(agonist) vs. response -- Variable slope". Table 2: 5-HT2AR Calcium Flux Activation Assay

Mice (strain C57BL/6) [3] = experiment: Head-twitch response test in mice; assay type: in vivo; conditions: reflects hallucinogenic effect, Figure 1
Method: (§1) • 1. Assay conditions and materials: • 1.1 Animal source: Mice (strain C57BL/6, purchased from Shanghai Lingchang Biotechnology Co., Ltd., 8-9 weeks old, 20-24 grams, male) • 1.2 Conditions: Temperature (20-25°C), relative humidity (40-70%), light cycle (12-hour light cycle (7:00-19:00)), free access to food and water • 1.3 Marking: Animals were marked on the tail. • 2. Assay procedure:
• A) Adaptation: Starting from the second day after the animals arrived, they were conciliated by stroking and acclimated for seven consecutive days to reduce their stress response. • B) Grouping: One hour before the assay test, animals were placed in the testing room for adaptation. On the test day, animals were randomly grouped according to body weight. Each group contained 12 animals. • C) Assay Dosing: Animal body weight was measured, and compounds were administered according to the group, with a dosing volume of 10 mL/kg for all. • D) Testing: After dosing, animals were placed in transparent observation chambers, and head-twitch behaviors were recorded over 60 minutes. • E) Assay test indicator: Total number of head-twitches within 60 minutes after dosing.

Mice (strain C57BL/6) [4] = experiment: Forced swim test in naive mice 7 days after single administration; assay type: in vivo; conditions: compared to vehicle control group, p<0.05, Figure 2
Method: as §1
• A) Adaptation: Starting from the second day after the animals arrived, they were conciliated by stroking and acclimated for seven consecutive days to reduce their stress response. • B) Behavioral test (FST test): Compound and Psilocybin groups (15 animals per group) continued to be housed for 7 days after dosing. On day 7, the Ketamine group (15 animals per group) was dosed 30 minutes before being placed, together with the compound and Psilocybin groups, into forced swim observation chambers for 6 minutes. Immobility time during the last 4 minutes was calculated. • C) Assay test indicator: Immobility time of animals during 2-6 minutes of the forced swim test.

[5] = HEK293 cells stably expressing human 5-HT2A receptor
[6] = HEK293 cells stably expressing human 5-HT2A receptor, FLIPR, Fluo-4, read-out: EC50
[7] = competition with [3H]-Ketanserin, 1 hour, room temperature, read-out: 5-HT2A receptor/Ki

T1 sequence (P28223 whole entry): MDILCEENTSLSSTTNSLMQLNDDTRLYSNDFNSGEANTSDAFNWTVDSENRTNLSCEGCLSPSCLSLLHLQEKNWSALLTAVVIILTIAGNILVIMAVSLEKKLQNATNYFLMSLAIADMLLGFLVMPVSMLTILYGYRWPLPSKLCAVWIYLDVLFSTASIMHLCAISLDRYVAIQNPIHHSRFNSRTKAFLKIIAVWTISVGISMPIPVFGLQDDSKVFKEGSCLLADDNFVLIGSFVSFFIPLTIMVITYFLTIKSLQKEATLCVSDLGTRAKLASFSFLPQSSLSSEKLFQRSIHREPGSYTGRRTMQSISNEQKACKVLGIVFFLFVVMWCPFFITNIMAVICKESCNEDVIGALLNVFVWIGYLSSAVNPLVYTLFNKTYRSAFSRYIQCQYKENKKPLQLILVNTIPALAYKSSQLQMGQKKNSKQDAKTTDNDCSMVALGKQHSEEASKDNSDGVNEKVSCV

Row | Structure (SMILES) | Emax (5-HT2A receptor [2]; [5]) [%] | EC50 (5-HT2A receptor [2]; [6]) [µM] | Ki (5-HT2A receptor [1]; [7]) [µM] | also measured
1 | Oc1cc(F)cc2[nH]cc(C3CCN(CCCn4nccn4)C3)c12 (stereo not shown) [Compound 184, 6-fluoro-3-(1-[3-(2H-1,2,3-triazol-2-yl)propyl]pyrrolidin-3-yl)-1H-indol-4-ol] | 52.4 | – | – | Ki (5-HT2A receptor [1]): < 0.1 µM; EC50 (5-HT2A receptor [2]): 0.00872 µM
2 | Cc1cnn(CCCN2CCC(c3c[nH]c4ccccc34)C2)n1 (stereo not shown) [Compound 126] | 49.7 | 0.0277 | – | –
3 | Oc1cccc2[nH]cc([C@@H]3CCN(CCCn4nccn4)C3)c12 [Compound 182, (S)-3-(1-(3-(2H-1,2,3-triazol-2-yl)propyl)pyrrolidin-3-yl)-1H-indol-4-ol] | 57.4 | 0.0211 | < 0.1 | Total number of head-twitches within 60 minutes after dosing (Mice (strain C57BL/6) [3]; dose 30 mpk): did not cause significant head-twitch behavior
4 | c1ccc2c(C3CCN(CCCc4ncon4)C3)c[nH]c2c1 (stereo not shown) [Compound 49, 3-(1-[3-(1,2,4-oxadiazol-3-yl)propyl]pyrrolidin-3-yl)-1H-indole] | 47.6 | 0.034 | < 0.1 | Total number of head-twitches within 60 minutes after dosing (Mice (strain C57BL/6) [3]; dose 30 mpk): did not cause significant head-twitch behavior
5 | Cc1cc(CCN2CCC(c3c[nH]c4cccc(F)c34)CC2)n[nH]1 [reference compound] | 0.9 | > 100 | – | –
6 | Oc1cccc2[nH]cc(C3CCN(CCCc4ncsn4)C3)c12 (stereo not shown) [Compound 56] | 67.7 | 0.0086 | < 0.1 | –
7 | Cc1cnn(CCCN2CCC(c3c[nH]c4cccc(O)c34)C2)n1 (stereo not shown) [Compound 187, 3-(1-(3-(4-methyl-2H-1,2,3-triazol-2-yl)propyl)pyrrolidin-3-yl)-1H-indol-4-ol] | 63.7 | 0.00417 | < 0.1 | –
8 | Oc1cccc2[nH]cc(C3CCN(CCCn4nccn4)C3)c12 (stereo not shown) [Compound 180, 3-(1-(3-(2H-1,2,3-triazol-2-yl)propyl)pyrrolidin-3-yl)-1H-indol-4-ol] | 59.3 | 0.00995 | < 0.1 | Total number of head-twitches within 60 minutes after dosing (Mice (strain C57BL/6) [3]; dose 30 mpk): did not cause significant head-twitch behavior; Immobility time of animals during 2-6 minutes of the forced swim test (Mice (strain C57BL/6) [4]): significantly reduced immobility time
9 | CC(C)c1cnn(CCCN2CCC(c3c[nH]c4cccc(O)c34)C2)n1 (stereo not shown) [Compound 128] | 63.1 | 0.00709 | – | –
10 | COc1ccccc1CCCN1CCC(c2c[nH]c3cccc(O)c23)C1 (stereo not shown) [Compound 2] | 51.5 | 0.0169 | < 0.1 | –
11 | c1ccc2c([C@H]3CCN(CCCc4ncon4)C3)c[nH]c2c1 [Compound 171, (R)-3-(1-[3-(1,2,4-oxadiazol-3-yl)propyl]pyrrolidin-3-yl)-1H-indole] | 40.2 | 0.0635 | – | –
12 | Cn1cc(CCCN2CCC(c3c[nH]c4cccc(O)c34)C2)cn1 (stereo not shown) [Compound 60] | 29.9 | 0.0333 | < 0.1 | –
13 | Cc1nn(CCCN2CCC(c3c[nH]c4cccc(O)c34)C2)nc1C (racemic) [Compound 127] | 53.4 | 0.00394 | – | –
14 | c1ccc2c(C3CCN(CCCn4nccn4)C3)c[nH]c2c1 (stereo not shown) [Compound 125, 3-(1-(3-(2H-1,2,3-triazol-2-yl)propyl)pyrrolidin-3-yl)-1H-indole] | 62.9 | 0.0231 | < 0.1 | –
15 | Oc1cccc2[nH]cc(C3CCN(CCc4coc5ccccc45)C3)c12 (stereo not shown) [Compound 134] | 68.8 | 0.0433 | < 0.1 | –
16 | c1ccc2c(C3CCN(CCc4nnc5ccccn45)C3)c[nH]c2c1 (stereo not shown) [Compound 142, 3-(1-(2-((1,2,4)triazolo(4,3-a)pyridin-3-yl)ethyl)pyrrolidin-3-yl)-1H-indole] | 41.9 | – | – | Ki (5-HT2A receptor [1]): < 0.1 µM; EC50 (5-HT2A receptor [2]): 0.0459 µM
17 | Cc1nonc1CCCN1CCC(c2c[nH]c3ccccc23)C1 (stereo not shown) [Compound 54, 3-(1-(3-(4-methyl-1,2,5-oxadiazol-3-yl)propyl)pyrrolidin-3-yl)-1H-indole] | 46.7 | 0.0865 | < 0.1 | –
18 | c1ccc2c(C3CCN(CCCn4nccn4)CC3)c[nH]c2c1 [reference compound] | 25.5 | > 100 | – | –
19 | Oc1cccc2[nH]cc(C3CCN(CCCn4ncc(C5CC5)n4)C3)c12 (stereo not shown) [Compound 188, 3-(1-(3-(4-cyclopropyl-2H-1,2,3-triazol-2-yl)propyl)pyrrolidin-3-yl)-1H-indol-4-ol] | 48.5 | – | – | Ki (5-HT2A receptor [1]): < 0.1 µM; EC50 (5-HT2A receptor [2]): 0.0107 µM
20 | Cc1nc(C)n(CCCN2CCC(c3c[nH]c4ccccc34)C2)n1 (stereo not shown) [Compound 122, 3-(1-(3-(3,5-dimethyl-1H-1,2,4-triazol-1-yl)propyl)pyrrolidin-3-yl)-1H-indole] | 38.6 | 0.0248 | < 0.1 | –
21 | COc1cc(CC(C)N)c(OC)cc1I (stereo not shown) [DOI, reference compound] | – | – | – | Total number of head-twitches within 60 minutes after dosing (Mice (strain C57BL/6) [3]; dose 3 mpk): significant head-twitch behavior
22 | Cc1nnc(CCCN2CCC(c3c[nH]c4ccccc34)C2)n1C(C)C (stereo not shown) [Compound 86, 3-(1-(3-(5-methyl-4-(propan-2-yl)-4H-1,2,4-triazol-3-yl)propyl)pyrrolidin-3-yl)-1H-indole] | – | – | < 0.1 | –
23 | COc1ncncc1CCCN1CCC(c2c[nH]c3ccccc23)C1 (stereo not shown) [Compound 132, 3-(1-(3-(4-methoxypyrimidin-5-yl)propyl)pyrrolidin-3-yl)-1H-indole] | – | – | < 0.1 | –
